{"source": "paper PMC3060082", "about": "(Journal of medicinal chemistry, 2010)", "key": {"NAADP receptor [1]": {"system": "NAADP receptor", "assay": "Ca2+ release from Ca2+ loaded sea urchin egg homogenates", "assay_type": "biochemical, sea urchin (Strongylocentrotus purpuratus)", "settings": "for potency for Ca2+ release compared to NAADP (fold less potent): text summary of concentration response curves, Figure 2 / Table 3; for Fold increase in EC50: relative to NAADP (1); for concentration as low as which calcium-ion release is induced: Figure 1 traces; for amount of calcium release at saturating concentrations: compared with NAADP"}, "NAADP receptor [2]": {"system": "NAADP receptor", "assay": "Competition ligand binding with [32P]NAADP in sea urchin egg homogenate", "settings": "assay not specified"}, "NAADP receptor [3]": {"system": "NAADP receptor", "assay_type": "biochemical, sea urchin", "settings": "9 min pretreatment at 1 nM or higher (subthreshold concentration)"}}}
{"smiles": "Nc1cc[n+]([C@H]2O[C@@H](COP(=O)(O)OP(=O)(O)OC[C@H]3O[C@@H](n4cnc5c(N)ncnc54)[C@H](OP(=O)(O)O)[C@@H]3O)[C@H](O)[C@@H]2O)cc1C(=O)[O-]", "note": "[compound 16, 4-amino-NAADP]", "values": [{"measurement": "potency for Ca2+ release compared to NAADP (fold less potent)", "setting": "NAADP receptor [1]", "result": "two hundred to two thousand fold less potent"}, {"measurement": "loss of potency relative to NAADP", "setting": "NAADP receptor [2]", "result": "100 to 200", "unit": "fold"}]}
{"smiles": "Cc1cc[n+]([C@H]2O[C@@H](COP(=O)(O)OP(=O)(O)OC[C@H]3O[C@@H](n4cnc5c(N)ncnc54)[C@H](OP(=O)(O)O)[C@@H]3O)[C@H](O)[C@@H]2O)cc1C(=O)[O-]", "note": "[compound 17, 4-methyl-NAADP]", "values": [{"measurement": "potency for Ca2+ release compared with the 5-isomer 21", "setting": "NAADP receptor [1]; Figure 1", "result": "significantly less potent"}, {"measurement": "potency for Ca2+ release compared to NAADP (fold less potent)", "setting": "NAADP receptor [1]", "result": "two hundred to two thousand fold less potent"}, {"measurement": "loss of potency relative to NAADP", "setting": "NAADP receptor [2]", "result": "100 to 200", "unit": "fold"}]}
{"smiles": "CCCCc1cc[n+]([C@H]2O[C@@H](COP(=O)(O)OP(=O)(O)OC[C@H]3O[C@@H](n4cnc5c(N)ncnc54)[C@H](OP(=O)(O)O)[C@@H]3O)[C@H](O)[C@@H]2O)cc1C(=O)[O-]", "note": "[compound 18, 4-n-butyl-NAADP]", "values": [{"measurement": "Fold increase in EC50", "setting": "NAADP receptor [1]", "result": "> 50,000 fold"}]}
{"smiles": "Nc1ncnc2c1ncn2[C@@H]1O[C@H](COP(=O)(O)OP(=O)(O)OC[C@@H]2O[C@H]([n+]3ccc(-c4ccccc4)c(C(=O)[O-])c3)[C@@H](O)[C@H]2O)[C@@H](O)[C@H]1OP(=O)(O)O", "note": "[compound 19, 4-phenyl-NAADP]", "values": [{"measurement": "Fold increase in EC50", "setting": "NAADP receptor [1]", "result": "> 50,000 fold"}]}
{"smiles": "Nc1cc(C(=O)[O-])c[n+]([C@H]2O[C@@H](COP(=O)(O)OP(=O)(O)OC[C@H]3O[C@@H](n4cnc5c(N)ncnc54)[C@H](OP(=O)(O)O)[C@@H]3O)[C@H](O)[C@@H]2O)c1", "note": "[compound 20, 5-amino-NAADP]", "values": [{"measurement": "concentration as low as which calcium-ion release is induced", "setting": "NAADP receptor [1]", "result": 2, "unit": "nM"}, {"measurement": "amount of calcium release at saturating concentrations", "setting": "NAADP receptor [1]", "result": "same amount of calcium release as did the full agonist NAADP"}, {"measurement": "potency for Ca2+ release compared to NAADP (fold less potent)", "setting": "NAADP receptor [1]", "result": "approximately equipotent with NAADP"}, {"measurement": "loss of potency relative to NAADP", "setting": "NAADP receptor [2]", "result": "only slightly less potent than is NAADP itself"}]}
{"smiles": "Cc1cc(C(=O)[O-])c[n+]([C@H]2O[C@@H](COP(=O)(O)OP(=O)(O)OC[C@H]3O[C@@H](n4cnc5c(N)ncnc54)[C@H](OP(=O)(O)O)[C@@H]3O)[C@H](O)[C@@H]2O)c1", "note": "[compound 21, 5-methyl-NAADP]", "values": [{"measurement": "concentration as low as which calcium-ion release is induced", "setting": "NAADP receptor [1]", "result": 2, "unit": "nM"}, {"measurement": "amount of calcium release at saturating concentrations", "setting": "NAADP receptor [1]", "result": "same amount of calcium release as did the full agonist NAADP"}, {"measurement": "potency for Ca2+ release compared to NAADP (fold less potent)", "setting": "NAADP receptor [1]", "result": "approximately equipotent with NAADP"}, {"measurement": "loss of potency relative to NAADP", "setting": "NAADP receptor [2]", "result": "only slightly less potent than is NAADP itself"}, {"measurement": "receptor desensitization to 1 μM NAADP after pretreatment", "setting": "NAADP receptor [3]", "result": "same characteristic receptor desensitization as does NAADP itself"}]}
{"smiles": "Nc1ncnc2c1ncn2[C@@H]1O[C@H](COP(=O)(O)OP(=O)(O)OC[C@@H]2O[C@H]([n+]3cc(C(=O)[O-])cc(C(=O)O)c3)[C@@H](O)[C@H]2O)[C@@H](O)[C@H]1OP(=O)(O)O", "note": "[compound 22, 5-carboxy-NAADP]", "values": [{"measurement": "Fold increase in EC50", "setting": "NAADP receptor [1]", "result": "> 50,000 fold"}]}
{"smiles": "CCc1cc(C(=O)[O-])c[n+]([C@H]2O[C@@H](COP(=O)(O)OP(=O)(O)OC[C@H]3O[C@@H](n4cnc5c(N)ncnc54)[C@H](OP(=O)(O)O)[C@@H]3O)[C@H](O)[C@@H]2O)c1", "note": "[compound 23, 5-ethyl-NAADP]", "values": [{"measurement": "potency for Ca2+ release compared to NAADP (fold less potent)", "setting": "NAADP receptor [1]", "result": "10 to 100", "unit": "fold"}, {"measurement": "loss of potency relative to NAADP", "setting": "NAADP receptor [2]", "result": 20, "unit": "fold"}]}
{"smiles": "[N-]=[N+]=Nc1cc(C(=O)[O-])c[n+]([C@H]2O[C@@H](COP(=O)(O)OP(=O)(O)OC[C@H]3O[C@@H](n4cnc5c(N)ncnc54)[C@H](OP(=O)(O)O)[C@@H]3O)[C@H](O)[C@@H]2O)c1", "note": "[compound 24, 5-azido-NAADP]", "values": [{"measurement": "potency for Ca2+ release compared to NAADP (fold less potent)", "setting": "NAADP receptor [1]", "result": "10 to 100", "unit": "fold"}]}
